In the kinase profiling compilation of Christmann-Franck et al. (2016):

Columns and labels:
Experiment in all cases: radiometric filter-binding kinase assay, Kinase HotSpot
Settings in all cases: compound 0.5 µM; ATP 10 µM
ACVR1 (human) = ACVR1 (human) (UniProt Q04771)
[1] = tested on: ARAF (human), P10398 [Y301D/Y302D]
AURKA (human) = AURKA (human) (UniProt O14965)
BRAF (human) = BRAF (human) (UniProt P15056)
CDC42BPB (human) = CDC42BPB (human) (UniProt Q9Y5S2)
CDK5 CDK5R1 p35 (human) = CDK5 CDK5R1 p35 (human) (UniProt Q00535+Q15078)
CHUK (human) = CHUK (human) (UniProt O15111)
CLK2 (human) = CLK2 (human) (UniProt P49760)
CSNK1E (human) = CSNK1E (human) (UniProt P49674)
CSNK2A2 (human) = CSNK2A2 (human) (UniProt P19784)
DCLK2 (human) = DCLK2 (human) (UniProt Q8N568)
EGFR (human) = EGFR (human) (UniProt P00533)
EPHB4 (human) = EPHB4 (human) (UniProt P54760)
ERBB2 (human) = ERBB2 (human) (UniProt P04626)
FES (human) = FES (human) (UniProt P07332)
FGFR1 (human) = FGFR1 (human) (UniProt P11362)
GRK6 (human) = GRK6 (human) (UniProt P43250)
MAP3K10 (human) = MAP3K10 (human) (UniProt Q02779)
MAPK1 (human) = MAPK1 (human) (UniProt P28482)
MAPK12 (human) = MAPK12 (human) (UniProt P53778)
MARK2 (human) = MARK2 (human) (UniProt Q7KZI7)
MYLK (human) = MYLK (human) (UniProt Q15746)
NEK7 (human) = NEK7 (human) (UniProt Q8TDX7)
NUAK2 (human) = NUAK2 (human) (UniProt Q9H093)
PAK1 (human) = PAK1 (human) (UniProt Q13153)
PBK (human) = PBK (human) (UniProt Q96KB5)
PDGFRB (human) = PDGFRB (human) (UniProt P09619)
PLK1 (human) = PLK1 (human) (UniProt P53350)
PLK2 (human) = PLK2 (human) (UniProt Q9NYY3)
PRKCE (human) = PRKCE (human) (UniProt Q02156)
PRKD2 (human) = PRKD2 (human) (UniProt Q9BZL6)
RAF1 (human) = RAF1 (human) (UniProt P04049)
STK4 (human) = STK4 (human) (UniProt Q13043)
WEE1 (human) = WEE1 (human) (UniProt P30291)
ABL1 (human) = ABL1 (human) (UniProt P00519)

RAF1 (human), sequence (P04049 whole entry, looked up): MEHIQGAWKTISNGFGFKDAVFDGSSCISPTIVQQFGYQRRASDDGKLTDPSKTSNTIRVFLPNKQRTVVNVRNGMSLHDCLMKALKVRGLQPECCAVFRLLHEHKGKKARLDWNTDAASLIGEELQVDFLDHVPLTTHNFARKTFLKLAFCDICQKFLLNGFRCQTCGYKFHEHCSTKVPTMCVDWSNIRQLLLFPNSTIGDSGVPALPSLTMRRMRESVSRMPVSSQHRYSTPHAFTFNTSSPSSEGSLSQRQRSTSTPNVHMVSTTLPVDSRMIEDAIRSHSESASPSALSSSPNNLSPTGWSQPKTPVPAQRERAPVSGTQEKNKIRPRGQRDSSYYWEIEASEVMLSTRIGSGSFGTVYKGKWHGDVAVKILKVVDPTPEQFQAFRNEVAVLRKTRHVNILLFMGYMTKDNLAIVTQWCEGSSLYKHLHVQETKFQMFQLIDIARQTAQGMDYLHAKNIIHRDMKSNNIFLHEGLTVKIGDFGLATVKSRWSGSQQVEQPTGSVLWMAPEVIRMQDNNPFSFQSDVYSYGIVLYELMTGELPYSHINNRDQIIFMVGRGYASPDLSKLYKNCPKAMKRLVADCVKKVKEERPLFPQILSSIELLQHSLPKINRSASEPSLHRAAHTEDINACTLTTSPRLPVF
PLK2 (human), sequence (Q9NYY3 whole entry, looked up): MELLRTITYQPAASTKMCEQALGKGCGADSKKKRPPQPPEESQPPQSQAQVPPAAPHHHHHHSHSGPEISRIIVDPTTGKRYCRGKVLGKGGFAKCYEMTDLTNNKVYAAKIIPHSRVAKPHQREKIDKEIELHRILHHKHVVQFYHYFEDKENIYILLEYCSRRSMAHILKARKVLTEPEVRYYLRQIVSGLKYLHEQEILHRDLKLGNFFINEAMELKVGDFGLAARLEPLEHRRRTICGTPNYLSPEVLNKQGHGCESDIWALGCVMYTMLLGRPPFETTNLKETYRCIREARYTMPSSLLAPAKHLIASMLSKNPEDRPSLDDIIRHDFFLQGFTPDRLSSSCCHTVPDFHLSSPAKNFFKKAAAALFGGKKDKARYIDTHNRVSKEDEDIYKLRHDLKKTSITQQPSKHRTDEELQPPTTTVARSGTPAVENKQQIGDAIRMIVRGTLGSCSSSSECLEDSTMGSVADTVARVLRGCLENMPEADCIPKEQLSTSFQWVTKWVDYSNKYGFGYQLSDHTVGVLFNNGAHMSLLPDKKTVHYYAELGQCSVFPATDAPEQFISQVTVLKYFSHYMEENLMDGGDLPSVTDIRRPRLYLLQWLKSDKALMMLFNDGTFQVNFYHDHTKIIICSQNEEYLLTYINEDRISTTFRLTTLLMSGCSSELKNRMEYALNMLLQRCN
CLK2 (human), sequence (P49760 whole entry, looked up): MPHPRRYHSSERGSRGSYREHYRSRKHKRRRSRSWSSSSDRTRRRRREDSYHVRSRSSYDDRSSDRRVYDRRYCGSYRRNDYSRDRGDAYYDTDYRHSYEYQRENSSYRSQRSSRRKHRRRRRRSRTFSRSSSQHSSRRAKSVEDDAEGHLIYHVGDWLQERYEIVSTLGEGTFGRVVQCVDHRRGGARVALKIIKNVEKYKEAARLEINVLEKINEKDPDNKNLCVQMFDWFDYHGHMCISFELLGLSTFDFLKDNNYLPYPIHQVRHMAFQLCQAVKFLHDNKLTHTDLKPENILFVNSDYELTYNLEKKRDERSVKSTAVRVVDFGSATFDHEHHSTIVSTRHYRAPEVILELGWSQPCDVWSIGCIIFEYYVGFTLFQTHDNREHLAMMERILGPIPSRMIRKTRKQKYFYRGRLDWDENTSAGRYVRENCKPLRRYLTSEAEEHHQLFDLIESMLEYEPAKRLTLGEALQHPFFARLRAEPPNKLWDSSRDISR
MYLK (human), sequence (Q15746 whole entry, looked up): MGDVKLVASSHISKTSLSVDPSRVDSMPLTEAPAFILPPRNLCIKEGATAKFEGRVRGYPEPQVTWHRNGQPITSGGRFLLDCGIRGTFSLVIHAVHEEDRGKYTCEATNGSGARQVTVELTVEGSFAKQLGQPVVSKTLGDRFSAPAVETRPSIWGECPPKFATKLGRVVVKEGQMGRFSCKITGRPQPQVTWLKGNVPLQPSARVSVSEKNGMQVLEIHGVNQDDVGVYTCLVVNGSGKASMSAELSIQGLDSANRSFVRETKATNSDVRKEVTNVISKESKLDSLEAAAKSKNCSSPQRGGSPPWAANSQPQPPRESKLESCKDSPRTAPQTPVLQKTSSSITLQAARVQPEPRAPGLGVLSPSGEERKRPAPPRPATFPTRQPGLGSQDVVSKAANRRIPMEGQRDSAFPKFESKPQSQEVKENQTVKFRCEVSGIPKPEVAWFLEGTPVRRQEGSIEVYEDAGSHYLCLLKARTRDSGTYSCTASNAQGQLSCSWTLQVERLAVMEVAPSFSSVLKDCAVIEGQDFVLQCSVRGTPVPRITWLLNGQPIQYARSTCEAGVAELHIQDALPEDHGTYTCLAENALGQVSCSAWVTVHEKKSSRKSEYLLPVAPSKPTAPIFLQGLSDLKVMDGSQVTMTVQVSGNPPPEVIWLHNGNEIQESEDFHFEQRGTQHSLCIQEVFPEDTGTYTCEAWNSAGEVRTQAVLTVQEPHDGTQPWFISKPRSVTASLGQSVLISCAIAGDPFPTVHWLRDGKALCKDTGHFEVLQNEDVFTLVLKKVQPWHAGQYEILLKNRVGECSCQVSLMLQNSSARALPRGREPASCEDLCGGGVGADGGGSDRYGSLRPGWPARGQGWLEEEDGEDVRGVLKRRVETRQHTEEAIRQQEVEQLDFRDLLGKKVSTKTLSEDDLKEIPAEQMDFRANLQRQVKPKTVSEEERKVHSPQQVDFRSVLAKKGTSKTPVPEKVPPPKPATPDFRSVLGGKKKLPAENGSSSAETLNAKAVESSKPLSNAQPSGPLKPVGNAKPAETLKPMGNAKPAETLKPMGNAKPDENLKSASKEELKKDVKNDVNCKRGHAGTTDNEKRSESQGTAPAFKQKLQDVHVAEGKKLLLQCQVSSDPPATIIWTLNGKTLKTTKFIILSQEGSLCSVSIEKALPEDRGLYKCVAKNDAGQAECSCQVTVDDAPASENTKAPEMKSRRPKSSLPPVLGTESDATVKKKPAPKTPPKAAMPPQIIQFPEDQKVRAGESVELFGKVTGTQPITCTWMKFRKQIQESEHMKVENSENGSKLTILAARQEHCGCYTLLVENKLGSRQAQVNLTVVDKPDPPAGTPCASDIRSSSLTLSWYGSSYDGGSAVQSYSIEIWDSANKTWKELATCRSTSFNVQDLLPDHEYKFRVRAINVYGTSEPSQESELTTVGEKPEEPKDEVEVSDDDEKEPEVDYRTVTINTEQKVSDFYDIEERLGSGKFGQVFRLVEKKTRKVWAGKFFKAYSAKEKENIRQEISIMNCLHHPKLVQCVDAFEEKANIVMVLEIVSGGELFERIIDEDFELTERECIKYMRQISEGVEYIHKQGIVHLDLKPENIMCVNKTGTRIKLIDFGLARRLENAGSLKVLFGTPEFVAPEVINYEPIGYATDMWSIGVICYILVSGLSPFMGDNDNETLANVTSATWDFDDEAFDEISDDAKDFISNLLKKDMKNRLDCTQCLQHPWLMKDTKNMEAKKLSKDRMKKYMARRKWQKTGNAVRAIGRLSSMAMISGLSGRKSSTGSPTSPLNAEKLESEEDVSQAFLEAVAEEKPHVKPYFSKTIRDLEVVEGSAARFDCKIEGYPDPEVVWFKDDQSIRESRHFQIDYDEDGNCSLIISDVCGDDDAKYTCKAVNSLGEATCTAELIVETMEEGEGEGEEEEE
MAPK1 (human), sequence (P28482 whole entry, looked up): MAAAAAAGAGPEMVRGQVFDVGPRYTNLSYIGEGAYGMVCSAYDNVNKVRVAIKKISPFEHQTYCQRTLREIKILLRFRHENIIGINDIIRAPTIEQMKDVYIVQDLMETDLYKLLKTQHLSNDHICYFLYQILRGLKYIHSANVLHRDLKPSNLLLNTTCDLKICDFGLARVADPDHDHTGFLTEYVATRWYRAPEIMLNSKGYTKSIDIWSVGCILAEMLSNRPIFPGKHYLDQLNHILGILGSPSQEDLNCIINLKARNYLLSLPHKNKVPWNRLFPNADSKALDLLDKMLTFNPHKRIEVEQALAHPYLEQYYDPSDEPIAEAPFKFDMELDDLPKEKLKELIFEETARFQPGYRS
NUAK2 (human), sequence (Q9H093 whole entry, looked up): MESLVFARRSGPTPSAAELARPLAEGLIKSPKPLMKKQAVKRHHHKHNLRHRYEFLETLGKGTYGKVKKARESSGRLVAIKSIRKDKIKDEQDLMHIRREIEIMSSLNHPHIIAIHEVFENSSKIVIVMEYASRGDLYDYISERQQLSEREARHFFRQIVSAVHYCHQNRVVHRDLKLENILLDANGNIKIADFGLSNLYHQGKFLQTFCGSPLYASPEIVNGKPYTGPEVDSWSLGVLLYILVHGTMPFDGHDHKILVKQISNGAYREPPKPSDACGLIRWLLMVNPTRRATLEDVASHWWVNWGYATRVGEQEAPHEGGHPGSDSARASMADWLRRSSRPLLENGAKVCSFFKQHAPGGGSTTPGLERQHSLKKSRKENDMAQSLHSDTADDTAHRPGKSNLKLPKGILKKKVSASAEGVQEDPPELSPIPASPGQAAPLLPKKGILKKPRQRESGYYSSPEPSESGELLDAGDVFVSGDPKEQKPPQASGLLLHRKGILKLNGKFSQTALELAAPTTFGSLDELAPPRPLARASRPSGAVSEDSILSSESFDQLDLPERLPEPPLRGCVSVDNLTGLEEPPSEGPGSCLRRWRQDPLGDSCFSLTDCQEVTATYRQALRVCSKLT
NEK7 (human), sequence (Q8TDX7 whole entry, looked up): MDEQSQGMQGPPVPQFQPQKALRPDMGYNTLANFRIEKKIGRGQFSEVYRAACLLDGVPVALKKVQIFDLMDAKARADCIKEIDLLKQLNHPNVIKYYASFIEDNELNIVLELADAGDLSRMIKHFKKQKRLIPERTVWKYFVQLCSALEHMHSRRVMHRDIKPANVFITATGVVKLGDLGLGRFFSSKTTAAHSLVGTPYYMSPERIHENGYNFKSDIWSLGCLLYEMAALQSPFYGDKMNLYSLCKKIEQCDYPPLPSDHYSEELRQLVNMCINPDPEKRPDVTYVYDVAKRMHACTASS

Row | Compound | residual activity (ACVR1 (human)) | residual activity [1] | residual activity (BRAF (human)) | residual activity (CDC42BPB (human)) | residual activity (CHUK (human)) | residual activity (CLK2 (human)) | residual activity (CSNK1E (human)) | residual activity (CSNK2A2 (human)) | residual activity (DCLK2 (human)) | residual activity (EPHB4 (human)) | residual activity (ERBB2 (human)) | residual activity (GRK6 (human)) | residual activity (MAP3K10 (human)) | residual activity (MAPK1 (human)) | residual activity (MAPK12 (human)) | residual activity (MYLK (human)) | residual activity (NEK7 (human)) | residual activity (NUAK2 (human)) | residual activity (PAK1 (human)) | residual activity (PBK (human)) | also measured
1 | O=C1Nc2cc(Br)ccc2/C1=C1/Nc2ccccc2/C1=N\O | 114% | 99.8% | 98.2% | 97.5% | 104% | 91.9% | 83.7% | 63.1% | 99.1% | 78.5% | 102% | 79.9% | 92.1% | 113% | 93.8% | 45% | 103% | 73.4% | 89.8% | 109% | residual activity (AURKA (human)): 17.1%; residual activity (CDK5 CDK5R1 p35 (human)): 12.4%; residual activity (EGFR (human)): 89%; residual activity (FES (human)): 96%; residual activity (FGFR1 (human)): 45.1%; residual activity (MARK2 (human)): 61.8%; residual activity (PDGFRB (human)): 35.2%; residual activity (PLK1 (human)): 101%; residual activity (PLK2 (human)): 98.9%; residual activity (PRKCE (human)): 92.4%; residual activity (PRKD2 (human)): 94.1%; residual activity (RAF1 (human)): 103%; residual activity (STK4 (human)): 22.5%; residual activity (WEE1 (human)): 96%
2 | Nc1nc(Nc2ccc(S(N)(=O)=O)cc2)nn1C(=O)c1c(F)cccc1F | 104% | 93.1% | 55% | 96% | 99% | 71.5% | 96.9% | 97.5% | 85.3% | 81% | 91.1% | 77.2% | 77.8% | 98.4% | 89.9% | 80% | 99% | 34% | 89.5% | 92.1% | residual activity (CDK5 CDK5R1 p35 (human)): 0.212%; residual activity (EGFR (human)): 97%; residual activity (PDGFRB (human)): 89.1%; residual activity (PLK1 (human)): 97.5%; residual activity (PLK2 (human)): 94.2%; residual activity (PRKCE (human)): 97.2%; residual activity (PRKD2 (human)): 86%; residual activity (RAF1 (human)): 95.7%; residual activity (STK4 (human)): 19.9%; residual activity (WEE1 (human)): 83.6%
3 | CC(C)(C)c1nc2c3ccc(F)cc3c3c(=O)[nH]ccc3c2[nH]1 | 135% | 122% | 117% | 96.8% | 102% | 93.9% | 85.6% | 91.5% | 65.8% | 88.2% | 109% | 48.2% | 89.7% | 96.1% | 97.9% | 9.03% | 76.5% | 66% | 82.1% | 39.1% | residual activity (ABL1 (human)): 98.4%; residual activity (AURKA (human)): 22.3%; residual activity (EGFR (human)): 94.8%; residual activity (FES (human)): 78%; residual activity (FGFR1 (human)): 75.8%; residual activity (MARK2 (human)): 41.5%; residual activity (PLK1 (human)): 10.5%; residual activity (PLK2 (human)): 92.6%; residual activity (PRKCE (human)): 51.4%; residual activity (PRKD2 (human)): 6.13%; residual activity (RAF1 (human)): 134%; residual activity (STK4 (human)): 6.84%; residual activity (WEE1 (human)): 87.4%
4 | O=C1Cc2c([nH]c3ccc([N+](=O)[O-])cc23)-c2ccccc2N1 | 79.7% | 96.2% | 99.5% | 83.3% | 103% | 97.7% | 95.9% | 64.4% | 105% | 87.2% | 94.8% | 93.8% | 48.6% | 106% | 112% | 88.8% | 89.7% | 68.6% | 36.7% | 85.1% | residual activity (ABL1 (human)): 57.7%; residual activity (AURKA (human)): 96%; residual activity (CDK5 CDK5R1 p35 (human)): 7.98%; residual activity (FES (human)): 46.3%; residual activity (FGFR1 (human)): 88.6%; residual activity (MARK2 (human)): 52.4%; residual activity (PDGFRB (human)): 87.4%; residual activity (PLK1 (human)): 98%; residual activity (PLK2 (human)): 106%; residual activity (PRKCE (human)): 111%; residual activity (PRKD2 (human)): 101%; residual activity (RAF1 (human)): 114%; residual activity (STK4 (human)): 52.3%; residual activity (WEE1 (human)): 98.2%
